Patent US20260206761A1, “HETEROARYL-TRIAZOLE COMPOUNDS AS PESTICIDES” (Bayer Aktiengesellschaft, priority 2019, published 2026)

How the values were obtained:
Type in all cases: in vivo
[1] = tested on: adult brown dog ticks (Rhipicephalus sanguineus); assay: Rhipicephalus sanguineus in-vitro contact test, adult brown dog ticks; settings: after 48 hours, read-out: activity (efficacy: ticks dead or moribund); for pest or weed control at 100 g/ha: application rate 1 pg/cm^2 (=100 g/ha); for pest or weed control at 5 µg/cm2, 500 g/ha: application rate 5 μg/cm^2 (=500 g/ha)
Protocol: Rhipicephalus sanguineus—In-Vitro Contact Tests with Adult Brown Dog Ticks
(§1) 9 mg compound is solved in 1 mL acetone and diluted with acetone to the desired concentration. 250 μL of the test solution is filled in 25 mL glass test tubes and homogeneously distributed on the inner walls by rotation and tilting on a shaking device (2 h at 30 rpm). With a compound concentration of 900 ppm, an inner surface of 44.7 cm^2 and a homogeneous distribution, a dose of 5 μg/cm^2 is achieved.
After the solvent has evaporated, each test tube is filled with 5-10 adult brown dog ticks (Rhipicephalus sanguineus), closed with a perforated lid and incubated in a lying position at room temperature and relative humidity. After 48 hours efficacy is determined. The ticks are patted on the ground of the tubes and are incubated on a heating plate at 45-50° C. for at most 5 minutes. Immotile or uncoordinated moving ticks, which are not able to escape the heat by climbing upwards, are marked as dead or moribund.
An efficacy of 100% means all ticks are dead or moribund; 0% means no ticks are dead or moribund.

[2] = tested on: larvae of the banded cucumber beetle (Diabrotica balteata); assay: Diabrotica balteata spray test; settings: 168 h, application rate 100 g/ha (=32 pg/well), after 7 days, read-out: activity (efficacy: seedlings grown)
Protocol: Diabrotica balteata—spray test
(§2) Solvent: 78.0 parts by weight of acetone • • 1.5 parts by weight of dimethylformamide
(§3) Emulsifier: alkylarylpolyglycol ether
(§4) To produce a suitable preparation of active compound, 1 part by weight of active compound is mixed with the stated amount of solvent, and the concentrate is diluted with water, containing an emulsifier concentration of 1000 ppm, to the desired concentration. Further test concentrations are prepared by dilution with emulsifier containing water.
Soaked wheat seeds (Triticum aestivum) are placed in a multiple well plate filled with agar and some water and are incubated for 1 day to germinate (5 seeds per well). The germinated wheat seeds are sprayed with a test solution containing the desired concentration of the active ingredient. Afterwards each unit is infected with 10-20 larvae of the banded cucumber beetle (Diabrotica balteata).
After 7 days efficacy in % is determined. 100% means all the seedlings have grown up like in the untreated, uninfected control; 0% means none of the seedlings have grown.

[3] = tested on: adult engorged female ticks (Rhipicephalus microplus); assay: Rhipicephalus (Boophilus) microplus injection test; settings: 168 h, application rate 4 pg/animal, egg deposition after 7 days, read-out: activity (efficacy: infertile eggs)
Protocol: Rhipicephalus (Boophilus) microplus—Injection Test
Solvent: dimethyl sulfoxide
To produce a suitable preparation of active compound, 10 mg of active compound are dissolved in 0.5 mL solvent, and the concentrate is diluted with solvent to the desired concentration.
Five adult engorged female ticks (Rhipicephalus microplus) are injected with 1 μL compound solution into the abdomen. The ticks are transferred into replica plates and incubated in a climate chamber.
After 7 days egg deposition of fertile eggs is monitored. Eggs where fertility is not visible are stored in a climate chamber till hatching after about 42 days. An efficacy of 100% means all eggs are infertile; 0% means all eggs are fertile.

[4] = tested on: green peach aphid (Myzus persicae); assay: Myzus persicae oral test; settings: 120 h, application rate 4 ppm, after 5 days
Protocol: Solvent: 100 parts by weight acetone
To produce a suitable preparation of active compound, 1 part by weight of active compound is mixed with the stated amount of solvent, and the concentrate is diluted with water to the desired concentration.
50 μL compound solution is filled in microtiter plates and 150 μL IPL41 insect medium (33%+15% sugar) is added to obtain a total volume of 200 μL per well. Afterwards the plates are sealed with parafilm through which a mixed population of the green peach aphid (Myzus persicae) can suck on the compound preparation.
After 5 days mortality in % is determined. 100% means all aphids have been killed and 0% means none of the aphids have been killed.

[5] = tested on: Rhipicephalus microplus larvae (strain Parkhurst, resistant against synthetic pyrethroids); assay: Rhipicephalus (Boophilus) microplus in-vitro contact test, larval cattle tick; settings: after 48 hours, read-out: activity (efficacy: larvae dead or moribund); for pest or weed control at 100 g/ha: application rate 1 pg/cm^2 (=100 g/ha); for pest or weed control at 500 g/ha: application rate 5 pg/cm^2 (=500 g/ha)
Protocol: Rhipicephalus (Boophilus) microplus—In-Vitro Contact Tests Larval Cattle Tick (Strain Parkhurst. Resistant Against Synthetic Pyrethroids)
as §1
After the solvent has evaporated, each test tube is filled with 20-50 cattle tick larvae (Rhipicephalus microplus), closed with a perforated lid and incubated in a horizontal position at 85% relative humidity and 27° C. in an incubator. After 48 hours efficacy is determined. The larvae are patted on the ground of the tubes and negative geotactic behaviour is recorded.
An efficacy of 100% means all larvae are dead or moribund; 0% means no larvae are dead or moribund.

[6] = tested on: fall armyworm larvae (Spodoptera frugiperda); assay: Spodoptera frugiperda spray test; settings: 168 h, read-out: activity (mortality)
Protocol: Spodoptera frugiperda—Spray Test
Solvent: 78.0 parts by weight acetone • 1.5 parts by weight dimethylformamide
as §3
To produce a suitable preparation of active compound, 1 part by weight of active compound is mixed with the stated amount of solvents and is diluted with water, containing an emulsifier concentration of 1000 ppm, to the desired concentration. Further test concentrations are prepared by dilution with emulsifier containing water.
Maize (Zea mays) leaf sections are sprayed with a preparation of the active ingredient of the desired concentration. Once dry, the leaf sections are infested with fall armyworm larvae (Spodoptera frugiperda).
After 7 days mortality in % is determined. 100% means all caterpillars have been killed and 0% means none of the caterpillars have been killed.

[7] = tested on: larvae of the southern green stink bug (Nezara viridula); assay: Nezara viridula spray test; settings: 96 h, after 4 days; for mortality at 100 g/ha: application rate 100 g/ha; for mortality at 500 g/ha: application rate 500 g/ha
Protocol: Nezara viridula—Spray Test
as §2, §3, §4
Barley plants (Hordeum vulgare) infested with larvae of the southern green stink bug (Nezara viridula) are sprayed with a test solution containing the desired concentration of the active ingredient.
After 4 days mortality in % is determined. 100% means all the stink bugs have been killed; 0% means none of the stink bugs have been killed.

COc1nc([C@H](C)NC(=O)c2cc(OC(F)(F)F)cc(C3CC3)c2)n(-c2ccc(C#N)cn2)n1 [I-44]
90%: mortality at 4 ppm [4]
100%: pest or weed control at 100 g/ha [1] | pest or weed control at 5 µg/cm2, 500 g/ha [1] | pest or weed control at 100 g/ha [2] | pest or weed control at 4 pg [3] | pest or weed control at 100 g/ha [5] | pest or weed control at 500 g/ha [5] | mortality at 100 g/ha [6]

COc1nc([C@H](C)NC(=O)c2cc(Cl)cc(S(=O)(=O)C(F)F)c2)n(-c2ccc(Cl)cn2)n1 [I-53]
100%: pest or weed control at 100 g/ha [2] | mortality at 4 ppm [4] | mortality at 100 g/ha [6]

COc1nc([C@H](C)NC(=O)c2cc(Cl)cc(S(=O)(=O)C(F)(F)F)c2)n(-c2ccc(C#N)cn2)n1 [I-54]
100%: mortality at 4 ppm [4] | pest or weed control at 100 g/ha [5] | pest or weed control at 500 g/ha [5] | mortality at 100 g/ha [6]

COc1nc([C@H](C)NC(=O)c2cc(Cl)cc(S(=O)(=O)C(F)F)c2)n(-c2ccc(C#N)cn2)n1 [I-55]
100%: pest or weed control at 100 g/ha [2] | mortality at 4 ppm [4] | pest or weed control at 100 g/ha [5] | pest or weed control at 500 g/ha [5] | mortality at 100 g/ha [6]

C[C@H](NC(=O)c1cc(Cl)cc(S(C)(=O)=O)c1)c1nc(C2CC2)nn1-c1ccc(Cl)cn1 [I-58]
80%: pest or weed control at 5 µg/cm2, 500 g/ha [1]
100%: pest or weed control at 100 g/ha [1] | pest or weed control at 100 g/ha [2] | mortality at 100 g/ha [7] | mortality at 500 g/ha [7] | mortality at 4 ppm [4] | pest or weed control at 100 g/ha [5] | pest or weed control at 500 g/ha [5] | mortality at 100 g/ha [6]

C[C@H](NC(=O)c1cc(Cl)cc(S(=O)(=O)C2CC2)c1)c1nc(C2CC2)nn1-c1ccc(Cl)cn1 [I-59]
80%: pest or weed control at 100 g/ha [2]
100%: mortality at 100 g/ha [7] | mortality at 500 g/ha [7] | mortality at 4 ppm [4] | pest or weed control at 100 g/ha [5] | pest or weed control at 500 g/ha [5] | mortality at 100 g/ha [6]

C[C@H](NC(=O)c1cc(F)cc(S(C)(=O)=O)c1)c1nc(C2CC2)nn1-c1ccc(Cl)cn1 [I-60]
100%: pest or weed control at 100 g/ha [1] | pest or weed control at 5 µg/cm2, 500 g/ha [1] | pest or weed control at 100 g/ha [2] | mortality at 100 g/ha [7] | mortality at 500 g/ha [7] | mortality at 4 ppm [4] | pest or weed control at 100 g/ha [5] | pest or weed control at 500 g/ha [5] | mortality at 100 g/ha [6]

COc1nc([C@H](C)NC(=O)c2cc(Cl)cc(S(=O)(=O)C3CC3)c2)n(-c2ccc(Cl)cn2)n1 [I-62]
100%: pest or weed control at 100 g/ha [2] | mortality at 4 ppm [4] | mortality at 100 g/ha [6]

C[C@H](NC(=O)c1cc(OC(F)F)cc(S(C)(=O)=O)c1)c1nc(C2CC2)nn1-c1ccc(C#N)cn1 [I-65]
100%: pest or weed control at 100 g/ha [2] | mortality at 100 g/ha [7] | mortality at 500 g/ha [7] | mortality at 4 ppm [4] | mortality at 100 g/ha [6]

C[C@H](NC(=O)c1cc(C(F)(F)F)cc(S(C)(=O)=O)c1)c1nc(C2CC2)nn1-c1ccc(Cl)cn1 [I-68]
100%: pest or weed control at 100 g/ha [2] | mortality at 4 ppm [4] | mortality at 100 g/ha [6]

C[C@H](NC(=O)c1cc(OC(F)(F)F)cc(S(C)(=O)=O)c1)c1nc(C2CC2)nn1-c1ccc(Cl)cn1 [I-69]
90%: mortality at 100 g/ha [7]
100%: pest or weed control at 100 g/ha [2] | mortality at 4 ppm [4] | mortality at 100 g/ha [6]

COc1nc([C@H](C)NC(=O)c2cc(Br)cc(C3(F)CC3)c2)n(-c2ccc(C#N)cn2)n1 [I-71]
100%: pest or weed control at 100 g/ha [2] | mortality at 4 ppm [4] | pest or weed control at 100 g/ha [5] | pest or weed control at 500 g/ha [5] | mortality at 100 g/ha [6]

COc1nc([C@H](C)NC(=O)c2cc(OC(F)F)cc(C3CC3)c2)n(-c2ccc(C#N)cn2)n1 [I-74]
80%: pest or weed control at 100 g/ha [2]
100%: mortality at 4 ppm [4] | pest or weed control at 100 g/ha [5] | pest or weed control at 500 g/ha [5] | mortality at 100 g/ha [6]

COc1nc([C@H](C)NC(=O)c2cc(OC(F)(F)F)cc(S(C)(=O)=O)c2)n(-c2ccc(C#N)cn2)n1 [I-75]
100%: mortality at 100 g/ha [7] | mortality at 4 ppm [4] | mortality at 100 g/ha [6]
80%: pest or weed control at 100 g/ha [2]
90%: mortality at 500 g/ha [7]

COc1nc([C@H](C)NC(=O)c2cc(OC(F)F)cc(C3CC3)c2)n(-c2ncc(Cl)cn2)n1 [I-76]
100%: pest or weed control at 100 g/ha [2] | mortality at 4 ppm [4] | pest or weed control at 100 g/ha [5] | pest or weed control at 500 g/ha [5] | mortality at 100 g/ha [6]

C[C@H](NC(=O)c1cc(OC(F)F)cc(C2CC2)c1)c1ncnn1-c1ccc(C#N)cn1 [II-62]
100%: pest or weed control at 100 g/ha [1] | pest or weed control at 5 µg/cm2, 500 g/ha [1] | pest or weed control at 100 g/ha [2] | pest or weed control at 4 pg [3] | mortality at 4 ppm [4] | pest or weed control at 100 g/ha [5] | pest or weed control at 500 g/ha [5] | mortality at 100 g/ha [6]
